Measurements published in publication PMC10892142, “Synthesis and In Vitro Antitumor Activity Evaluation of Gefitinib-1,2,3-Triazole Derivatives” (Molecules, 2024).

Tests used:
NCI-H1299 cells = assay: CCK-8 assay, NCI-H1299 cells; type: cell-based, human; settings: CCK-8, 48 h, mean ± SD, n = 3
Description: (§1) Next, cell viability was determined according to the instructions of the CCK-8 assay. Then, 10 μL CCK-8 solution was added to each well of the plate and incubated for 1–4 h in the incubator. […] The percentage of viable cells was measured using the following formula where three independent experiments were performed: [(A450sample − A450blank)/(A450control − A450blank)] × 100%.

A549 cells = assay: CCK-8 assay, A549 cells; type: cell-based; settings: CCK-8, 48 h, mean ± SD, n = 3
Description: as §1

NCI-H1437 cells = assay: CCK-8 assay, NCI-H1437 cells; type: cell-based; settings: CCK-8, 48 h, mean ± SD, n = 3
Description: as §1

IDO1 = settings: read-out: IDO1 inhibitory activity IC50; cited from earlier work

Molecule | IC50 (NCI-H1299 cells) [µM] | IC50 (A549 cells) [µM] | IC50 (NCI-H1437 cells) [µM] | IC50 (NCI-H1299 cells; Homo sapiens, NCI-H1299) [µM] | IC50 (A549 cells; Homo sapiens, A549) [µM] | IC50 (NCI-H1437 cells; Homo sapiens, NCI-H1437) [µM] | melting point [°C] | IC50 (IDO1) [µM]
7-Methoxy-N-(3-(1-(2-methyl-3-nitrophenyl)-1H-1,2,3-triazol-4-yl)phenyl)-6-(3-morpholinopropoxy)quinazolin-4-amine [Compound 4g] | 6.02 ± 0.12 | 4.65 ± 0.08 | 2.15 ± 0.1 |  |  |  |  | 
COc1cc2ncnc(Nc3cccc(-c4cn(Cc5ccc(F)c(Cl)c5)nn4)c3)c2cc1OCCCN1CCOCC1 [Compound 4a, N-(3-(1-(3-Chloro-4-fluorobenzyl)-1H-1,2,3-triazol-4-yl)phenyl)-7-methoxy-6-(3-morpholinopropoxy)quinazolin-4-amine] |  |  |  | 7.59 ± 0.19 | 6.81 ± 0.33 | 2.05 ± 0.03 | 192 to 193 | 
COc1cc2ncnc(Nc3cccc(-c4cn(-c5ccc(Cl)cc5)nn4)c3)c2cc1OCCCN1CCOCC1 [Compound 4d, N-(3-(1-(4-Chlorophenyl)-1H-1,2,3-triazol-4-yl)phenyl)-7-methoxy-6-(3-morpholinopropoxy)quinazolin-4-amine] |  |  |  | 11.4 ± 0.97 | 9.04 ± 0.41 | 6.41 ± 0.54 | 162 to 163 | 
COc1cc2ncnc(Nc3cccc(-c4cn(-c5ccccc5Br)nn4)c3)c2cc1OCCCN1CCOCC1 [Compound 4e, N-(3-(1-(2-Bromophenyl)-1H-1,2,3-triazol-4-yl)phenyl)-7-methoxy-6-(3-morpholinopropoxy)quinazolin-4-amine] |  |  |  | 11.9 ± 0.32 | 8.62 ± 0.76 | 11.2 ± 0.95 | 175 to 176 | 
COc1cc2ncnc(Nc3cccc(-c4cn(-c5ccc([N+](=O)[O-])c(C)c5)nn4)c3)c2cc1OCCCN1CCOCC1 [Compound 4f, 7-Methoxy-N-(3-(1-(3-methyl-4-nitrophenyl)-1H-1,2,3-triazol-4-yl)phenyl)-6-(3-morpholinopropoxy)quinazolin-4-amine] |  |  |  | 13.3 ± 0.52 | 13.7 ± 0.71 | 9.27 ± 0.4 | 175 to 176 | 
COc1cc2ncnc(Nc3cccc(-c4cn(-c5ccccc5Cl)nn4)c3)c2cc1OCCCN1CCOCC1 [Compound 4h, N-(3-(1-(2-Chlorophenyl)-1H-1,2,3-triazol-4-yl)phenyl)-7-methoxy-6-(3-morpholinopropoxy)quinazolin-4-amine] |  |  |  | 7.69 ± 0.11 | 9.81 ± 0.34 | 3.09 ± 0.13 | 167 to 168 | 
COc1cc2ncnc(Nc3cccc(-c4cn(-c5cccc(F)c5)nn4)c3)c2cc1OCCCN1CCOCC1 [Compound 4i, N-(3-(1-(3-Fluorophenyl)-1H-1,2,3-triazol-4-yl)phenyl)-7-methoxy-6-(3-morpholinopropoxy)quinazolin-4-amine] |  |  |  | 9.35 ± 0.31 | 13 ± 0.29 | 4.77 ± 0.32 |  | 
COc1cc2ncnc(Nc3cccc(-c4cn(-c5cccc6c5C(=O)N(C5CCC(=O)NC5=O)C6=O)nn4)c3)c2cc1OCCCN1CCOCC1 (stereo not drawn) [Compound 4j, 2-(2,6-Dioxopiperidin-3-yl)-4-(4-(3-((7-methoxy-6-(3-morpholinopropoxy)quinazolin-4-yl)amino)phenyl)-1H-1,2,3-triazol-1-yl)isoindoline-1,3-dione] |  |  |  | 12 ± 0.33 | 11.4 ± 0.89 | 6.6 ± 0.07 | 187 to 188 | 
COc1cc2ncnc(Nc3cccc(-c4cn(Cc5ccc(Br)cc5)nn4)c3)c2cc1OCCCN1CCOCC1 [Compound 4k, N-(3-(1-(4-Bromobenzyl)-1H-1,2,3-triazol-4-yl)phenyl)-7-methoxy-6-(3-morpholinopropoxy)quinazolin-4-amine] |  |  |  | 7.15 ± 0.12 | 8.95 ± 0.99 | 5.95 ± 0.72 | 177 to 178 | 
COc1cc2ncnc(Nc3cccc(-c4cn(Cc5ccccc5C#N)nn4)c3)c2cc1OCCCN1CCOCC1 [Compound 4l, 2-((4-(3-((7-Methoxy-6-(3-morpholinopropoxy)quinazolin-4-yl)amino)phenyl)-1H-1,2,3-triazol-1-yl)methyl)benzonitrile] |  |  |  | 5.43 ± 0.24 | 7.53 ± 0.66 | 2.23 ± 0.26 | 167 to 168 | 
COc1cc2ncnc(Nc3cccc(-c4cn(Cc5cc(Br)cc(Br)c5)nn4)c3)c2cc1OCCCN1CCOCC1 [Compound 4m, N-(3-(1-(3,5-Dibromobenzyl)-1H-1,2,3-triazol-4-yl)phenyl)-7-methoxy-6-(3-morpholinopropoxy)quinazolin-4-amine] |  |  |  | 4.79 ± 0.13 | 2.39 ± 0.3 | 2.53 ± 0.11 |  | 
COc1cc2ncnc(Nc3cccc(-c4cn(Cc5ccc(C)cc5)nn4)c3)c2cc1OCCCN1CCOCC1 [Compound 4n, 7-methoxy-N-(3-(1-(4-methylbenzyl)-1H-1,2,3-triazol-4-yl)phenyl)-6-(3-morpholinopropoxy)quinazolin-4-amine] |  |  |  | 5.91 ± 0.44 | 10.4 ± 0.82 | 5.79 ± 0.88 | 168 to 169 | 
Oc1ccc(Cl)cc1-c1cnn[nH]1 [MMG-0358] |  |  |  |  |  |  |  | 0.082
Clc1ccc(Nc2cnn[nH]2)cc1 [Vertex-AT] |  |  |  |  |  |  |  | 0.023
COCCOc1cc2ncnc(Nc3cccc(-c4cn(Cc5ccccc5Br)nn4)c3)c2cc1OCCOC [compound e] |  |  |  |  |  |  |  | 0.32 ± 0.07
